This assay deals with Mu-type opioid receptor (Rattus norvegicus, UniProt P33535).

We go through one substance from BindingDB's records for PubMed 7815359 (University of Pennsylvania, 1995).

Chain of Mu-type opioid receptor (P33535 whole entry): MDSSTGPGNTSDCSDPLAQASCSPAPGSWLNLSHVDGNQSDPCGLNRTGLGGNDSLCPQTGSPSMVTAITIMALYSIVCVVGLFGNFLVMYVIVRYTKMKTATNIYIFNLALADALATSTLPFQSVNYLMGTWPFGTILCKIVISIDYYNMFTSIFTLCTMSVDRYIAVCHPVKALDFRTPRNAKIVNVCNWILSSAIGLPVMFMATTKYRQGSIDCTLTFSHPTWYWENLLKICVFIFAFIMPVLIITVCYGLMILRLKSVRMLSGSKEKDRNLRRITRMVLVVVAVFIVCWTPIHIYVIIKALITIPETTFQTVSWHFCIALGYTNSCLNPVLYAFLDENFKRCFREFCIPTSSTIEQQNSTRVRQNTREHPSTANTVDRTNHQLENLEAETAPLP

For orientation: Ki means a measure of affinity in units of concentration, obtained from inhibition or displacement. For the substance “H-YGGFMTSEKSQTPLVTLFKNAIVKNAHKKGQ-OH [Beta-Endorphin]”, the affinity, expressed as Ki, was 1.7 nM.
